From US20250074943A1, “DLL3 BINDING PEPTIDES AND USES THEREOF” (AMGEN INC., priority 2021, published 2025)
Read-outs that look alike come from different tables or passages of the source. Values belong to the compound of their own block, whether it stands above or below them. Numbered stars: 1 amine (or outer) side, 2 acyl side, 3 side chain; on linkers, the order of the positions; unused ones are H or OH. Bridge positions count the residues as written; N and C are the ends. Primed or numbered codes have the meaning given here. Peptide text beside a SMILES is read from it. I, II: the chains in the order shown. * marks the point of attachment. X8 = NC(=O)[C@H](CCCCNC(=O)CCOCCOCCOCCOCCNC(=O)CCOCCOCCOCCN(CCOCCOCCOCCC(=O)NCCOCCOCCOCCOCCC(=O)NCCCC[C@H](NC(=O)CCC(=O)NCCCOCCOCCOCCCN[*:2])C(N)=O)C(=O)CNC(=O)CCOCCOCCOCCOCCNC(=O)CCC(=O)N1Cc2ccccc2C#Cc2ccccc21)NC(=O)CCC(=O)NCCCOCCOCCOCCCN[*:1]; X15 = NC(=O)[C@H](CCCCNC(=O)CCOCCOCCOCCN(CCOCCOCCOCCC(=O)NCCCC[C@H](NC(=O)CCC(=O)NCCCOCCOCCOCCCN[*:2])C(N)=O)C(=O)CNC(=O)CCOCCOCCOCCOCCNC(=O)CCC(=O)N1Cc2ccccc2C#Cc2ccccc21)NC(=O)CCC(=O)NCCCOCCOCCOCCCN[*:1]; X1 = NC(=O)[C@H](CCCCNC(=O)CCOCCOCCOCCOCCNC(=O)CCC(=O)N1Cc2ccccc2C#Cc2ccccc21)NC(=O)CCC(=O)NCCCOCCOCCOCCCN*; K(PEG4-DBCO-FEA) = Lys whose side chain carries PEG4-DBCO conjugated to fluoroethylazide (FEA); Ttds(4) = trioxatridecan-succinamic acid (linker), O=C(CCC(=O)[*:2])NCCCOCCOCCOCCCN[*:1]; Ttds(3) = Trioxatridecan-succinamic acid linker, O=C(CCC(=O)[*:2])NCCCOCCOCCOCCCN[*:1]

What was measured:
[1] = target: T1, recombinant DLL3 ectodomain (rhDLL3-Fc) (Homo sapiens, UniProt Q9NYJ7); test: Binding kinetic assay using Bio-layer interferometry (BLI); settings: for binding mode to DLL3: peptides at 20, 4 and 0.8 μM, fit to 1:1 Langmuir binding model; for affinity: wider dose-response 10×KD to 0.1×KD
T1 construct: The recombinant DLL3 ectodomain (rhDLL3-Fc) was biotinylated; Fc
T1 sequence (Q9NYJ7 27-492 limits assumed): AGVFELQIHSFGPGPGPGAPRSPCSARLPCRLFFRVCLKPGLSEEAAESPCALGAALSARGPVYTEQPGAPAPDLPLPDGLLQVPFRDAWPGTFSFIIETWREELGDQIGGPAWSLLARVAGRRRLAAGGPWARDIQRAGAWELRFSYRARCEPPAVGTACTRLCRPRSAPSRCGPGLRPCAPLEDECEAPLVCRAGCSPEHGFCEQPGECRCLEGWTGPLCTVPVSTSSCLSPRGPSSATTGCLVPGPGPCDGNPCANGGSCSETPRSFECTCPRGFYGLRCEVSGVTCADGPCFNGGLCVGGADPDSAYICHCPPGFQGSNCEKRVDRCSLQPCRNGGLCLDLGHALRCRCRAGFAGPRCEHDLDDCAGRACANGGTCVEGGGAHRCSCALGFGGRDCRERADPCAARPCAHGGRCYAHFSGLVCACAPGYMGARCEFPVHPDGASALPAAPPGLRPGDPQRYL
Protocol: (§1) Binding kinetic assays were performed using Bio-layer interferometry (BLI) technology. The recombinant DLL3 ectodomain (rhDLL3-Fc) was biotinylated using EZ-Link Sulfo-NHS-LC-LC-Biotin Kit according to the manufacturer's protocol (Pierce by Thermo Fisher Scientific). The recombinant protein was incubated with an excess of NHS-LC-LC Biotin ester, in a molar ratio of 1:3 (protein: biotin), at 25° C. for 90 min. The un-reacted biotin ester was removed by subsequent buffer exchange on 0.5 ml Zeba spin desalting columns 7K MWCO (Pierce by Thermo Fisher Scientific).

[2] = target: T2, rhDLL3-Fc (Homo sapiens, UniProt Q9NYJ7); test: SPR binding / off-rate screening (Biacore T200); settings: for binding to rhDLL3-Fc, complex half-life: single point SPR
T2 construct: The recombinant DLL3 ectodomain (rhDLL3-Fc) was biotinylated; Fc
T2 sequence (Q9NYJ7 27-492 limits assumed): T1 sequence (Q9NYJ7 27-492 limits assumed)
Protocol: as §1, with “Binding kinetic assays were performed using Bio-layer interferometry (BLI) technology.” left out
The off-rate screening of the peptides was done using a Biacore T200 instrument (Cytiva, Sweden). […] Sensorgrams were analyzed by Biacore T200 Evaluation Software 3.0 (Cytiva, Sweden): specific binding was obtained by subtracting unspecific binding to naked biosensors and a zero analyte concentration made of binding assay buffer (double referencing). […]

[3] = Table 4, ± values from three independent experiments, read-out: RT (residence time) (converted)
[4] = range over the seven peptides, read-out: residence time
[5] = Table 8, curve fitting of SPR sensorgrams, read-out: koff
[6] = Table 8, curve fitting of SPR sensorgrams, read-out: kon

Compound: CC(C)[C@H](NC(=O)[C@@H](NC(=O)[C@H](CCC(=O)O)NC(=O)[C@H](C)N)[C@@H](C)O)C(=O)N[C@@H](CCC(=O)O)C(=O)N[C@@H](Cc1ccccc1)C(=O)N[C@@H](Cc1ccc(O)cc1)C(=O)NCC(=O)N[C@H]1CSSC[C@@H](C(=O)N[C@@H](CO)C(=O)N[C@@H](Cc2c[nH]c3ccccc23)C(N)=O)NC(=O)[C@H]([C@@H](C)O)NC(=O)[C@H](Cc2ccc(O)cc2)NC(=O)[C@H](CC(=O)O)NC(=O)[C@H](CC(N)=O)NC(=O)[C@H](Cc2ccc(O)cc2)NC(=O)[C@H](CC(N)=O)NC(=O)CNC(=O)[C@H](Cc2c[nH]c3ccccc23)NC1=O [PepSP1177] (H-AETVEFYGCWGNYNDYTCSW-NH2; disulfide 9-18; N-terminus assumed)
residence time [1, 3]: 0.867 min
binding mode to DLL3 [1]: dose-response saturable binding

Compound: CC(=O)N[C@@H](C)C(=O)N[C@@H](CCC(=O)O)C(=O)N[C@H](C(=O)N[C@H](C(=O)N[C@@H](CCC(=O)O)C(=O)N[C@@H](Cc1ccccc1)C(=O)N[C@@H](Cc1c[nH]c2ccccc12)C(=O)N[C@@H](Cc1c[nH]c2ccccc12)C(=O)N[C@H]1CSSC[C@@H](C(=O)N[C@H](C(=O)N[C@@H](Cc2c[nH]c3ccccc23)C(=O)NCC(=O)NCC(=O)NCCCOCCOCCOCCCNC(=O)CCC(=O)N[C@@H](CCCCNC(=O)CCOCCOCCOCCOCCNC(=O)CCC(=O)N2Cc3ccccc3C#Cc3ccccc32)C(N)=O)[C@@H](C)O)NC(=O)[C@H]([C@@H](C)O)NC(=O)[C@H](Cc2c[nH]c3ccccc23)NC(=O)[C@H](CC(N)=O)NC(=O)[C@H](CCC(=O)O)NC(=O)[C@H](CO)NC(=O)[C@H](CC(N)=O)NC(=O)CNC(=O)[C@H](CC(N)=O)NC1=O)C(C)C)[C@@H](C)O [PepSP1462] (Ac-AETVEFWWCNGNSENWTCTWGG-X1; disulfide 9-18 (inferred))
koff [2]: 0.0014 s⁻¹
kon [2]: 230000 M⁻¹ s⁻¹

Compound: Ac-AETVEFWWCNGNSENWTCTW-GG-Ttds-K(PEG4-DBCO-FEA)-NH2 (Ac-AETVEFWWCNGNSENWTCTWGG-{Ttds(3)-K(PEG4-DBCO-FEA)-NH2}; cysteine pairing not given here) [PepSP1538]
binding to rhDLL3-Fc, complex half-life [2]: tight rhDLL3-Fc binders with a stable complex half-life

Compound: [Ac-AETVEFWWCNGNSENWTCTW-GG-Ttds-K(PEG3)]2-PEG4-DBCO-FEA (Ac-AETVEFWWCNGNSENWTCTWGG-{Ttds(4)-K(PEG3)}; not fully specified (bridges); printed as [Ac-AETVEFWWCNGNSENWTCTW-GG-Ttds-K(PEG3)]2-PEG4-DBCO-FEA; cysteine pairing not given here; also: dimer linked via PEG4-DBCO-FEA) [PepSP1581]
binding to rhDLL3-Fc, complex half-life [2]: tight rhDLL3-Fc binders with a stable complex half-life

Compound: [Ac-AETVEFWWCNGNSENWTCTW-GG-Ttds-K(PEG4-PEG3)]2-PEG4-DBCO-FEA [PepSP1582]
binding to rhDLL3-Fc, complex half-life [2]: tight rhDLL3-Fc binders with a stable complex half-life

Compound: [Ac-AETVEFWWCNGNSENWTCTW-GG-Ttds-K(Ttds-Ttds-PEG3)]2-PEG4-DBCO- [PepSP1583]
binding to rhDLL3-Fc, complex half-life [2]: tight rhDLL3-Fc binders with a stable complex half-life

Results, then the compound that gave them:

residence time [1, 3]: 1.27 min
binding mode to DLL3 [1]: dose-response saturable binding
residence time [1, 4]: 1 to 3 min
affinity [1]: double-digit nM range
Compound: CC(C)[C@H](NC(=O)[C@@H](NC(=O)[C@H](CCC(=O)O)NC(=O)[C@H](C)N)[C@@H](C)O)C(=O)N[C@@H](CCC(=O)O)C(=O)N[C@@H](Cc1ccccc1)C(=O)N[C@@H](Cc1ccc(O)cc1)C(=O)NCC(=O)N[C@H]1CSSC[C@@H](C(=O)N[C@H](C(=O)N[C@@H](Cc2c[nH]c3ccccc23)C(N)=O)[C@@H](C)O)NC(=O)[C@H]([C@@H](C)O)NC(=O)[C@H](Cc2ccc(O)cc2)NC(=O)[C@H](CC(=O)O)NC(=O)[C@H](CC(N)=O)NC(=O)[C@H](CCCNC(=N)N)NC(=O)[C@H](CC(=O)O)NC(=O)CNC(=O)[C@H](Cc2ccc(O)cc2)NC1=O [PepSP1178] (H-AETVEFYGCYGDRNDYTCTW-NH2; disulfide 9-18; N-terminus assumed)

residence time [1, 3]: 1.61 min
binding mode to DLL3 [1]: dose-response saturable binding
residence time [1, 4]: 1 to 3 min
affinity [1]: double-digit nM range
Compound: CC(C)[C@H](NC(=O)[C@@H](NC(=O)[C@H](CCC(=O)O)NC(=O)[C@H](C)N)[C@@H](C)O)C(=O)N[C@@H](CCC(=O)O)C(=O)N[C@@H](Cc1ccccc1)C(=O)N[C@@H](Cc1c[nH]c2ccccc12)C(=O)N[C@@H](CO)C(=O)N[C@H]1CSSC[C@@H](C(=O)NCC(=O)N[C@@H](Cc2c[nH]c3ccccc23)C(N)=O)NC(=O)[C@H](CO)NC(=O)[C@H](Cc2ccc(O)cc2)NC(=O)[C@H]([C@@H](C)O)NC(=O)[C@H](Cc2ccc(O)cc2)NC(=O)[C@H](CCC(=O)O)NC(=O)[C@H](CC(=O)O)NC(=O)[C@H](C)NC(=O)[C@H](C)NC(=O)CNC(=O)CNC(=O)[C@H](Cc2c[nH]c3ccccc23)NC(=O)[C@H](Cc2c[nH]c3ccccc23)NC(=O)[C@H](CCCCN)NC1=O [PepSP1182] (H-AETVEFWSCKWWGGAADEYTYSCGW-NH2; disulfide 9-23; N-terminus assumed)

residence time [1, 3]: 0.0227 min
Compound: C[C@@H](O)[C@@H]1NC(=O)CNC(=O)[C@H]([C@@H](C)O)NC(=O)[C@@H](NC(=O)CNC(=O)[C@@H](N)Cc2c[nH]c3ccccc23)CSSC[C@@H](C(=O)N[C@@H](Cc2c[nH]c3ccccc23)C(=O)N[C@@H](Cc2c[nH]c3ccccc23)C(N)=O)NC(=O)[C@H]([C@@H](C)O)NC(=O)[C@H](CCC(=O)O)NC(=O)[C@H](CC(N)=O)NC(=O)CNC(=O)[C@H](Cc2c[nH]c3ccccc23)NC1=O [PepSP1213] (H-WGCTGTWGNETCWW-NH2; disulfide 3-12; N-terminus assumed)

residence time [1, 3]: 0.333 min
Compound: C[C@@H](O)[C@H](NC(=O)[C@@H]1CSSC[C@H](NC(=O)[C@H](CC(=O)O)NC(=O)[C@@H](N)Cc2c[nH]c3ccccc23)C(=O)N[C@@H](Cc2c[nH]c3ccccc23)C(=O)NCC(=O)N[C@@H](CC(N)=O)C(=O)N[C@@H]([C@@H](C)O)C(=O)N[C@@H](CC(=O)O)C(=O)N[C@@H](CC(=O)O)C(=O)N[C@@H](Cc2c[nH]c3ccccc23)C(=O)N[C@@H]([C@@H](C)O)C(=O)N1)C(=O)N[C@@H](Cc1c[nH]c2ccccc12)C(N)=O [PepSP1269] (H-WDCWGNTDDWTCTW-NH2; disulfide 3-12; N-terminus assumed)

koff [2, 5]: 0.00037 s⁻¹
kon [2, 6]: 110000 M⁻¹ s⁻¹
Compound: CCCCOCCOCCOCCC(=O)CCCCCCCCCCCCCCCC(=O)CCC(=O)NCCCOCCOCCOCCCNC(=O)CCC(=O)CCCCC[C@@H](CC(=O)CCC(=O)NCCCOCCOCCOCCCNC(=O)CNC(=O)CNC(=O)[C@@H](Cc1c[nH]c2ccccc12)NC(=O)[C@H](CC(=O)[C@H]1CCCC[C@@H](CN[C@@H](Cc2c[nH]c3ccccc23)NC(=O)[C@@H](Cc2c[nH]c3ccccc23)NC(=O)[C@H](CC(=O)[C@@H](CCC(=O)O)CC(=O)[C@H](CC(=O)[C@](C)(NC(=O)[C@@H](CCC(C)=O)CC(=O)CCC(C)=O)C(C)C)C(C)C)Cc2ccccc2)C(=O)C[C@H](CC(C)=O)C(=O)NCC(=O)NC(CC(C)=O)C(=O)C[C@H](CC)C(=O)NC(CCC(C)=O)C(=O)C[C@H](CC(C)=O)C(=O)CC(Cc2c[nH]c3ccccc23)C(=O)C[C@H]([C@H](C)O)C(=O)C1)[C@H](C)O)C(C)=O (stereo partly drawn) [PepSP1489]

koff [2, 5]: 0.00031 s⁻¹
kon [2, 6]: 120000 M⁻¹ s⁻¹
Compound: I: Ac-AETVEFWWCNGNSENWTCTWGG / II: Ac-AETVEFWWCNGNSENWTCTWGG (disulfide I:9-I:18, II:9-II:18; linker I:C-II:C via X8) [PepSP1488]

koff [2, 5]: 0.00042 s⁻¹
kon [2, 6]: 76000 M⁻¹ s⁻¹
Compound: I: Ac-AETVEFWWCNGNSENWTCTWGG / II: Ac-AETVEFWWCNGNSENWTCTWGG (disulfide I:9-I:18, II:9-II:18; linker I:C-II:C via X15) [PepSP1487]
